{"source": "patent US5461035A", "about": "“Short peptides with insulin activity” (priority 1990, dated 1995)", "key": {"Balb-C mice": {"tested_on": "Balb-C mice", "experiment": "Blood glucose profile in mice", "format": "in vivo", "conditions": "intravenous", "protocol": "Female Charles River Wiga Balb-C mice weighing 17 to 21 g (about 30 days old) receive a standard diet. The mice receive no food for 16 hours before the start of the experiment. 5 animals in each experimental group receive intravenous administration of an aqueous solution (pH 6) of the compound from Example 4 (octapeptide). Volume administered 0.3 ml/animal.\nThe average for each experimental group is indicated in each case."}, "Rat lipocytes [1]": {"tested_on": "Rat lipocytes", "experiment": "Glucose transport, 2-deoxy-D-[1-3H]-glucose, rat lipocytes", "format": "cell-based", "conditions": "glucose 0.2 mM", "protocol": "Epididymal adipose tissue (Wistar rat, 160-180 g, no feed restriction) is digested with collagenase, and the resulting single lipocytes are washed several times by flotation. Lipocytes and pieces of diaphragm are prepared as in Example 5. The following tests measure exclusively the specific glucose transport which can be stimulated by insulin (facilitated diffusion) through the plasma membrane by means of glucose carriers, including the insulin signal-transmission cascade. Any effect of glucose metabolism on glucose transport is ruled out by using the non-metabolizable glucose analog. a) Rat lipocytes are incubated in the presence or absence of insulin or peptide with 2-deoxy-D-[1-^3 H]-glucose (final concentration of D-glucose 0.2 mM) and L-[1-^14 C]-glucose (not transportable). To determine the radioactivity ([^3 H] and [^14 C]) the cells are separated from the medium by centrifugation through an oil layer. The specific stereoselective glucose transport is calculated as the difference between the total cell-bound radioactivity ([^3 H]-glucose) and the associated radioactivity due to diffusion and non-specific effects ([C]-glucose)."}, "Rat lipocytes [2]": {"tested_on": "Rat lipocytes", "experiment": "Esterification in vitro of glycerol 3-phosphate in saponin-permeabilized lipocytes", "format": "cell-based", "protocol": "This test measures the esterification of glycerol 3-phosphate which can be stimulated by insulin in lipid products (triglycerides, phospholipids). The enzymes of lipid synthesis (for example acyl-CoA: L-glycerol 3-phosphate acyltransferase) are involved in this, including a functional insulin signal-transmission cascade. […] The incubation is continued after addition of L-[U-^14 C]-glycerol 3-phosphate. Toluene-soluble scintillation cocktail is added and the lipid is separated from the aqueous phase by centrifugation. The toluene phase containing the lipid is removed and its radioactivity is determined."}, "Rat lipocytes [3]": {"tested_on": "Rat lipocytes", "experiment": "Glucose uptake, D-[U-14C]-glucose, rat lipocytes", "format": "cell-based", "conditions": "D-glucose 22 μM", "protocol": "(§1) The biological activity of the peptides according to the invention, of the formula I and II, is determined using lipocytes and pieces of diaphragm obtained by dissection from rats. The term tripeptide means Tyr Cys Asn-OH and hexapeptide means acetyl-Leu Glu Asn Tyr Cys Asn-OH. The term \"baseline\" means the activity without stimulation, insulin means human insulin and dpm means radioactive disintegrations per minute. The term peptid denotes peptides having insulin activity according to the present invention. Rat lipocytes were prepared as follows:\nEpididymal adipose tissue (Wistar rat, 160-180 g, no feed restriction) is digested with collagenase, and the resulting single lipocytes are washed several times by flotation.\n(§2) The two following tests measure the glucose uptake which can be stimulated by insulin and which requires the functional insulin signal-transmission cascade and glucose transport, irrespective of whether glucose is metabolized by oxidation (glycolysis, pentose phosphate pathway) or not by oxidation. The conversion into lipids, glycogen or membrane-impermeable intermediates (glucose 6-phosphate), but not the production of lactate, is followed.\na) Rat lipocytes are incubated in the presence or absence of insulin or peptide with D-[U-^14 C]-glucose (final concentration of D-glucose 22 μM). The cells are separated from the medium by centrifugation through a silicone oil layer and are reisolated, and the cell-associated radioactivity is determined."}, "Rat lipocytes [4]": {"tested_on": "Rat lipocytes", "experiment": "Lipogenesis in trypsin-treated rat lipocytes (insulin receptor inactivated)", "format": "cell-based", "protocol": "Rat lipocytes from Example 5 are treated with low concentrations of trypsin to inactivate the insulin receptor by proteolysis. After addition of protease inhibitors, the cells are washed twice by flotation, and the incubation is continued at 37° C. for 15 min. These cells are then used for the test of stimulation of lipogenesis by the peptides. […] This means that this test measures stimulation of lipogenesis owing to interventions in the insulin signal-transmission cascade after receptor binding of insulin."}, "Pieces of diaphragm [5]": {"tested_on": "Pieces of diaphragm", "experiment": "Glucose uptake, D-[U-14C]-glucose, pieces of diaphragm", "format": "cell-based, rat", "conditions": "D-glucose 75 μM", "protocol": "as §1\n(§3) Preparation of pieces of diaphragm from rats: small pieces of tissue (5 mm diameter) are punched out of hemidiaphragms (Wistar rat, 60-70 g, no feed restriction) washed several times.\nas §2\nb) Pieces of diaphragm are incubated in the presence or absence of insulin or peptide with D-[U-^14 C]-glucose (final concentration of D-glucose 75 μM). The medium is aspirated out. The pieces of tissue are washed several times and subsequently solubilized by alkali treatment for the determination of radioactivity."}, "Pieces of diaphragm [6]": {"tested_on": "Pieces of diaphragm", "experiment": "Glucose transport, 2-deoxy-D-[1-3H]-glucose, pieces of diaphragm", "format": "cell-based, rat", "conditions": "glucose 0.1 mM", "protocol": "as §3\nLipocytes and pieces of diaphragm are prepared as in Example 5. The following tests measure exclusively the specific glucose transport which can be stimulated by insulin (facilitated diffusion) through the plasma membrane by means of glucose carriers, including the insulin signal-transmission cascade. Any effect of glucose metabolism on glucose transport is ruled out by using the non-metabolizable glucose analog.\nb) Pieces of diaphragm are incubated in the presence or absence of insulin or peptide with 2-deoxy-D-[1-^3 H]-glucose (final concentration of D-glucose 0.1 mM) and L-[1-^14 C]-glucose. The pieces of tissue are separated from the medium by rapid filtration through glass fiber filters and are thoroughly washed. The radioactivity is measured in an alkaline extract."}}, "note": "Residues, ends and D or L forms follow the SMILES beside them."}
{"molecule": "H-Tyr(Bu^t)-Gln-Leu-Glu(OBu^t)-Asn-Tyr(Bu^t)-Cys(Trt-Asn-Obu^t.HBr [Octapeptide]", "values": [{"measurement": "Blood glucose level, percentage difference to control group", "setting": "Balb-C mice; 500 μg/animal, 20 minutes", "result": -2, "unit": "%"}, {"measurement": "Blood glucose level, percentage difference to control group", "setting": "Balb-C mice; 500 μg/animal, 40 minutes", "result": -5, "unit": "%"}, {"measurement": "Blood glucose level, percentage difference to control group", "setting": "Balb-C mice; 500 μg/animal, 60 minutes", "result": -13, "unit": "%"}, {"measurement": "Blood glucose level, percentage difference to control group", "setting": "Balb-C mice; 500 μg/animal, 75 minutes", "result": -21, "unit": "%"}, {"measurement": "Blood glucose level, percentage difference to control group", "setting": "Balb-C mice; 500 μg/animal, 90 minutes", "result": -21, "unit": "%"}, {"measurement": "Blood glucose level, percentage difference to control group", "setting": "Balb-C mice; 1000 μg/animal, 20 minutes", "result": -31, "unit": "%"}, {"measurement": "Blood glucose level, percentage difference to control group", "setting": "Balb-C mice; 1000 μg/animal, 40 minutes", "result": -19, "unit": "%"}, {"measurement": "Blood glucose level, percentage difference to control group", "setting": "Balb-C mice; 1000 μg/animal, 60 minutes", "result": -23, "unit": "%"}, {"measurement": "Blood glucose level, percentage difference to control group", "setting": "Balb-C mice; 1000 μg/animal, 75 minutes", "result": -24, "unit": "%"}, {"measurement": "Blood glucose level, percentage difference to control group", "setting": "Balb-C mice; 1000 μg/animal, 90 minutes", "result": -19, "unit": "%"}]}
{"molecule": "NC(=O)C[C@H](NC(=O)[C@H](CS)NC(=O)[C@@H](N)Cc1ccc(O)cc1)C(=O)O", "note": "[Tripeptide, H-Tyr-Cys-Asn-OH] (H-Tyr-Cys-Asn-OH)", "values": [{"measurement": "Glucose transport", "setting": "Rat lipocytes [1]; peptide 0.1 Mm", "result": 2289, "unit": "dpm"}, {"measurement": "Glucose transport", "setting": "Rat lipocytes [1]; peptide 0.5 Mm", "result": 3055, "unit": "dpm"}, {"measurement": "Glucose transport", "setting": "Rat lipocytes [1]; peptide 1 Mm", "result": 5781, "unit": "dpm"}, {"measurement": "Esterification with lipocytes", "setting": "Rat lipocytes [2]; peptide 0.5 mM", "result": 4422, "unit": "dpm"}, {"measurement": "Esterification with lipocytes", "setting": "Rat lipocytes [2]; peptide 0.1 Mm", "result": 3710, "unit": "dpm"}, {"measurement": "Esterification with lipocytes", "setting": "Rat lipocytes [2]; peptide 1 Mm", "result": 5398, "unit": "dpm"}, {"measurement": "Glucose uptake", "setting": "Rat lipocytes [3]; peptide 0.1 Mm", "result": 1838, "unit": "dpm"}, {"measurement": "Glucose uptake", "setting": "Rat lipocytes [3]; peptide 0.5 Mm", "result": 2947, "unit": "dpm"}, {"measurement": "Glucose uptake", "setting": "Rat lipocytes [3]; peptide 1 Mm", "result": 6533, "unit": "dpm"}, {"measurement": "Lipogenesis", "setting": "Rat lipocytes [4]; peptide 0.5 mM", "result": 4145, "unit": "dpm"}, {"measurement": "Lipogenesis", "setting": "Rat lipocytes [4]; peptide 0.1 Mm", "result": 3250, "unit": "dpm"}, {"measurement": "Lipogenesis", "setting": "Rat lipocytes [4]; peptide 1 Mm", "result": 5072, "unit": "dpm"}, {"measurement": "Glucose uptake", "setting": "Pieces of diaphragm [5]; peptide 0.1 Mm", "result": 7591, "unit": "dpm"}, {"measurement": "Glucose uptake", "setting": "Pieces of diaphragm [5]; peptide 0.5 Mm", "result": 8540, "unit": "dpm"}, {"measurement": "Glucose uptake", "setting": "Pieces of diaphragm [5]; peptide 1 Mm", "result": 11588, "unit": "dpm"}, {"measurement": "Glucose transport", "setting": "Pieces of diaphragm [6]; peptide 0.1 Mm", "result": 8836, "unit": "dpm"}, {"measurement": "Glucose transport", "setting": "Pieces of diaphragm [6]; peptide 0.5 Mm", "result": 9822, "unit": "dpm"}, {"measurement": "Glucose transport", "setting": "Pieces of diaphragm [6]; peptide 1 Mm", "result": 11252, "unit": "dpm"}]}
{"molecule": "Ac-LENYCN-OH [Hexapeptide, Acetyl-Leu-Glu-Asn-Tyr-Cys-Asn-OH]", "values": [{"measurement": "Glucose transport", "setting": "Rat lipocytes [1]; peptide 0.1 Mm", "result": 2218, "unit": "dpm"}, {"measurement": "Glucose transport", "setting": "Rat lipocytes [1]; peptide 0.5 Mm", "result": 2842, "unit": "dpm"}, {"measurement": "Glucose transport", "setting": "Rat lipocytes [1]; peptide 1 Mm", "result": 3922, "unit": "dpm"}, {"measurement": "Glucose uptake", "setting": "Rat lipocytes [3]; peptide 0.1 Mm", "result": 1488, "unit": "dpm"}, {"measurement": "Glucose uptake", "setting": "Rat lipocytes [3]; peptide 0.5 Mm", "result": 1917, "unit": "dpm"}, {"measurement": "Glucose uptake", "setting": "Rat lipocytes [3]; peptide 1 Mm", "result": 4218, "unit": "dpm"}, {"measurement": "Glucose uptake", "setting": "Pieces of diaphragm [5]; peptide 0.1 Mm", "result": 7429, "unit": "dpm"}, {"measurement": "Glucose uptake", "setting": "Pieces of diaphragm [5]; peptide 0.5 Mm", "result": 7752, "unit": "dpm"}, {"measurement": "Glucose uptake", "setting": "Pieces of diaphragm [5]; peptide 1 Mm", "result": 8597, "unit": "dpm"}, {"measurement": "Glucose transport", "setting": "Pieces of diaphragm [6]; peptide 0.1 Mm", "result": 8450, "unit": "dpm"}, {"measurement": "Glucose transport", "setting": "Pieces of diaphragm [6]; peptide 0.5 Mm", "result": 8928, "unit": "dpm"}, {"measurement": "Glucose transport", "setting": "Pieces of diaphragm [6]; peptide 1 Mm", "result": 9676, "unit": "dpm"}]}
{"molecule": "Insulin: insulin means human insulin", "values": [{"measurement": "Glucose transport", "setting": "Rat lipocytes [1]; insulin 0.5 ng", "result": 4851, "unit": "dpm"}, {"measurement": "Glucose transport", "setting": "Rat lipocytes [1]; insulin 5 ng", "result": 20342, "unit": "dpm"}, {"measurement": "Esterification with lipocytes", "setting": "Rat lipocytes [2]; insulin 5 ng", "result": 3640, "unit": "dpm"}, {"measurement": "Glucose uptake", "setting": "Rat lipocytes [3]; insulin 0.5 ng", "result": 4379, "unit": "dpm"}, {"measurement": "Glucose uptake", "setting": "Rat lipocytes [3]; insulin 5 ng", "result": 26312, "unit": "dpm"}, {"measurement": "Lipogenesis", "setting": "Rat lipocytes [4]; insulin 5 ng", "result": 3087, "unit": "dpm"}, {"measurement": "Glucose uptake", "setting": "Pieces of diaphragm [5]; insulin 0.5 ng", "result": 10055, "unit": "dpm"}, {"measurement": "Glucose uptake", "setting": "Pieces of diaphragm [5]; insulin 5 ng", "result": 20841, "unit": "dpm"}, {"measurement": "Glucose transport", "setting": "Pieces of diaphragm [6]; insulin 0.5 ng", "result": 10828, "unit": "dpm"}, {"measurement": "Glucose transport", "setting": "Pieces of diaphragm [6]; insulin 5 ng", "result": 17750, "unit": "dpm"}]}
